Assay results reported in patent publication US11124538B2, “Neuroactive steroids, compositions, and uses thereof” (Sage Therapeutics, Inc., priority 2015, dated 2021).

The compounds below were run against [35S]-TBPS binding to rat brain cortical membranes in the presence of 5 μM GABA (GABA receptor complex) (assay: Steroid inhibition of [35S]-TBPS binding (radioligand displacement)). Settings: 3 nM [35S]-TBPS.
Procedure: TBPS binding assays using rat brain cortical membranes in the presence of 5 μM GABA has been described (Gee et al, J. Pharmacol. Exp. Ther. 1987, 241, 346-353; Hawkinson et al, Mol. Pharmacol. 1994, 46, 977-985; Lewin, A. H et al., Mol. Pharmacol. 1989, 35, 189-194).
Briefly, cortices are rapidly removed following decapitation of carbon dioxide-anesthetized Sprague-Dawley rats (200-250 g). The cortices are homogenized in 10 volumes of ice-cold 0.32 M sucrose using a glass/teflon homogenizer and centrifuged at 1500×g for 10 min at 4° C. The resultant supernatants are centrifuged at 10,000×g for 20 min at 4° C. to obtain the P2 pellets. The P2 pellets are resuspended in 200 mM NaCl/50 mM Na—K phosphate pH 7.4 buffer and centrifuged at 10,000×g for 10 min at 4° C. This washing procedure is repeated twice and the pellets are resuspended in 10 volumes of buffer. Aliquots (100 μL) of the membrane suspensions are incubated with 3 nM [^35S]-TBPS and 5 μL aliquots of test drug dissolved in dimethyl sulfoxide (DMSO) (final 0.5%) in the presence of 5 μM GABA. The incubation is brought to a final volume of 1.0 mL with buffer. […] Following a 90 min incubation at room temp, the assays are terminated by filtration through glass fiber filters (Schleicher and Schuell No. 32) using a cell harvester (Brandel) and rinsed three times with ice-cold buffer. Filter bound radioactivity is measured by liquid scintillation spectrometry. Non-linear curve fitting of the overall data for each drug averaged for each concentration is done using Prism (GraphPad). […] The concentration of test compound producing 50% inhibition (IC50) of specific binding and the maximal extent of inhibition (Imax) are determined for the individual experiments with the same model used for the overall data and then the means±SEM.s of the individual experiments are calculated.
Various compounds are or can be screened to determine their potential as modulators of [^35S]-TBPS binding in vitro. These assays are or can be performed in accordance with the above discussed procedures.
For `COC[C@]12CC[C@@](C)(O)C[C@H]1CC[C@H]1[C@@H]3CC[C@H](C(=O)Cn4nc5cc(F)cc(F)c5n4)[C@@]3(C)CC[C@@H]12` [Compound 10], the IC50 was under 0.01 µM. `COC[C@]12CC[C@@](C)(O)C[C@H]1CC[C@H]1[C@@H]3CC[C@H](C(=O)Cn4nnc5cc(Cl)cnc54)[C@@]3(C)CC[C@@H]12` [Compound 12] gave an IC50 of under 0.01 µM. `COC[C@]12CC[C@@](C)(O)C[C@H]1CC[C@H]1[C@@H]3CC[C@H](C(=O)Cn4nc5cc(Cl)cnc5n4)[C@@]3(C)CC[C@@H]12` [Compound 13] gave an IC50 of under 0.01 µM. `COC[C@]12CC[C@@](C)(O)C[C@H]1CC[C@H]1[C@@H]3CC[C@H](C(=O)Cn4cc5ccc(F)cc5n4)[C@@]3(C)CC[C@@H]12` [Compound 14] showed an IC50 of under 0.01 µM. `COC[C@]12CC[C@@](C)(O)C[C@H]1CC[C@H]1[C@@H]3CC[C@H](C(=O)Cn4ncc5ccc(F)cc54)[C@@]3(C)CC[C@@H]12` [Compound 15] gave an IC50 of under 0.01 µM. `COC[C@]12CC[C@@](C)(O)C[C@H]1CC[C@H]1[C@@H]3CC[C@H](C(=O)Cn4nnc5ccccc54)[C@@]3(C)CC[C@@H]12` [Compound 18] was tested, and the IC50 was under 0.01 µM. For `COC[C@]12CC[C@@](C)(O)C[C@H]1CC[C@H]1[C@@H]3CC[C@H](C(=O)Cn4cc(SC)cn4)[C@@]3(C)CC[C@@H]12` [Compound 21], the IC50 was under 0.01 µM. For `COC[C@]12CC[C@@](C)(O)C[C@H]1CC[C@H]1[C@@H]3CC[C@H](C(=O)Cn4nc5ccc(Cl)c(F)c5n4)[C@@]3(C)CC[C@@H]12` [Compound 24], the IC50 was under 0.01 µM. For `COC[C@]12CC[C@@](C)(O)C[C@H]1CC[C@H]1[C@@H]3CC[C@H](C(=O)Cn4nnc5ccc(OC)cc54)[C@@]3(C)CC[C@@H]12` [Compound 25], the IC50 was under 0.01 µM. `COC[C@]12CC[C@@](C)(O)C[C@H]1CC[C@H]1[C@@H]3CC[C@H](C(=O)Cn4nnc5cc(OC)ccc54)[C@@]3(C)CC[C@@H]12` [Compound 26] was tested, and the IC50 was under 0.01 µM. `COC[C@]12CC[C@@](C)(O)C[C@H]1CC[C@H]1[C@@H]3CC[C@H](C(=O)Cn4nc5ccc(OC)cc5n4)[C@@]3(C)CC[C@@H]12` [Compound 27] gave an IC50 of under 0.01 µM. In the case of `COC[C@]12CC[C@@](C)(O)C[C@H]1CC[C@H]1[C@@H]3CC[C@H](C(=O)Cn4nnc5c(OC)cccc54)[C@@]3(C)CC[C@@H]12` [Compound 28], the IC50 is reported as under 0.01 µM. `COC[C@]12CC[C@@](C)(O)C[C@H]1CC[C@H]1[C@@H]3CC[C@H](C(=O)Cn4nnc5cccc(OC)c54)[C@@]3(C)CC[C@@H]12` [Compound 29] was tested, and the IC50 was under 0.01 µM. `COC[C@]12CC[C@@](C)(O)C[C@H]1CC[C@H]1[C@@H]3CC[C@H](C(=O)Cn4nc5cccc(OC)c5n4)[C@@]3(C)CC[C@@H]12` [Compound 30] showed an IC50 of under 0.01 µM. `COC[C@]12CC[C@@](C)(O)C[C@@H]1CC[C@H]1[C@@H]3CC[C@H](C(=O)Cn4cc(SC)cn4)[C@@]3(C)CC[C@@H]12` [Compound 34] showed an IC50 of 0.01 to 0.05 µM. With `COC[C@]12CC[C@@](C)(O)C[C@@H]1CC[C@H]1[C@@H]3CC[C@H](C(=O)Cn4cc([S+](C)[O-])cn4)[C@@]3(C)CC[C@@H]12` (stereo partly shown) [Compound 35] the IC50 was over 0.5 µM. Compound `COC[C@]12CC[C@@](C)(O)C[C@H]1CC[C@H]1[C@@H]3CC[C@H](C(=O)Cn4cc5ccncc5n4)[C@@]3(C)CC[C@@H]12` [Compound 46] has an IC50 of 0.01 to 0.05 µM. `COC[C@]12CC[C@@](C)(O)C[C@@H]1CC[C@H]1[C@@H]3CC[C@H](C(=O)Cn4nnc5c(F)c(Cl)ccc54)[C@@]3(C)CC[C@@H]12` [Compound 51] gave an IC50 of under 0.01 µM. With `CC(C)OC[C@]12CC[C@@](C)(O)C[C@H]1CC[C@H]1[C@@H]3CC[C@H](C(=O)Cn4nnc5c(F)c(F)ccc54)[C@@]3(C)CC[C@@H]12` [Compound 68] the IC50 was under 0.01 µM. For `CC(C)OC[C@]12CC[C@@](C)(O)C[C@H]1CC[C@H]1[C@@H]3CC[C@H](C(=O)Cn4nnc5ccc(F)c(F)c54)[C@@]3(C)CC[C@@H]12` [Compound 69], the IC50 was under 0.01 µM. Work on `CC(C)OC[C@]12CC[C@@](C)(O)C[C@H]1CC[C@H]1[C@@H]3CC[C@H](C(=O)Cn4nc5ccc(F)c(F)c5n4)[C@@]3(C)CC[C@@H]12` [Compound 70] yielded an IC50 of under 0.01 µM. `CC(C)OC[C@]12CC[C@@](C)(O)C[C@H]1CC[C@H]1[C@@H]3CC[C@H](C(=O)Cn4ncnn4)[C@@]3(C)CC[C@@H]12` [Compound 72] showed an IC50 of under 0.01 µM. In the case of `COC[C@]12CC[C@@](C)(O)C[C@@H]1CC[C@H]1[C@@H]3CC[C@H](C(=O)Cn4ncc(C(=O)O)n4)[C@@]3(C)CC[C@@H]12` [Compound 81], the IC50 is reported as over 0.5 µM. `COC[C@]12CC[C@@](C)(O)C[C@@H]1CC[C@H]1[C@@H]3CC[C@H](C(=O)Cn4cc(C(=O)O)nn4)[C@@]3(C)CC[C@@H]12` [Compound 82] was tested, and the IC50 was over 0.5 µM. Work on `COC[C@]12CC[C@@](C)(O)C[C@@H]1CC[C@H]1[C@@H]3CC[C@H](C(=O)Cn4ncc(CO)n4)[C@@]3(C)CC[C@@H]12` [Compound 85] yielded an IC50 of over 0.5 µM.
